The numbers were not newly measured in patent US20050158402A1, “Preparation of Chinese herbal composite recipe used in environmental sanitation” (priority 2004, published 2005), which cites them from elsewhere.

“Also recorded” adds a separate entry of the source.

Data set [1] relates to type A hemolytic Streptococcus.
The next data set concerns Shigella. The following applies: 1% matrine, in vitro.
In a further data set the test system is E. Coli. The note with it: 1% matrine, in vitro.
A further data set has as its system Proteus. The following applies: 1% matrine, in vitro.
For a further data set, the system named is B-streptococcus. The note with it: 1% matrine, in vitro.
The subject of the next data set is Staphylococcus aureaus. The following applies: 1% matrine, in vitro.
A further data set has as its system Shigella species. The note with it: in vitro.

As to `C=C1[C@@H]2CC[C@@H](C2)[C@@]1(C)CC/C=C(/C)CO` [β -santol], the anti-bacteria effects result in the data set with bacteria is “The α - santol and β -santol show stronger anti-bacteria”.
Consider `CC[C@@H]1[C@H]2CCCCN3[C@H]2[C@H](C[C@H]3[C@@H]2C[C@H](C)C(=O)O2)[C@@H]2[C@H]1OC(=O)[C@H]2C` [tuberostemonine], for which, in the data set on Ascarid, the “paralyze Ascarid” value was “can paralyze”.
For evodiamine, in the data set on Columbia SK viruses, the “anti-viruses effect on rats infected by Columbia SK viruses” value was “anti-viruses effect; also recorded: anti-virus effect”.
Regarding `Cc1cc(O)c(C(=O)CCC(C)C)c(=O)o1` [pogostone], the “inhibitive effects on C. albicans” value with C. albicans was “The pogostone show apparently inhibitive effects on fungi”. Besides, the “inhibitive effects on Cryptococcus neoformans” value in the data set on Cryptococcus neoformans is on record as “The pogostone show apparently inhibitive effects on fungi”. Moreover, in the data set on Rhizopus stolonifer, the “inhibitive effects on Rhizopus stolonifer” value is on record as “The pogostone show apparently inhibitive effects on fungi”. Also, the “inhibitive effect on type A hemolytic Streptococcus” value in [1] was “stolonifer. It shows certain degree of inhibitive effect on type”. Besides, the “inhibit the growth of fungi such as Penicillum” value in the data set with Penicillum was 22(7): 318) The pogostone can inhibit the growth of fungi.
`O=C1CCC[C@@H]2[C@H]3CCCN4CCC[C@@H](CN12)[C@@H]34` [matrine]: the “bacteria inhibitive effects on Shigella” value in the data set on Shigella is on record as “bacteria inhibitive effects on Shigella, E. Coli, Proteus,”. Moreover, the “bacteria inhibitive effects on E. Coli” value in the data set on E. Coli is on record as “bacteria inhibitive effects on Shigella, E. Coli, Proteus,”. Also, the “bacteria inhibitive effects on Proteus” value with Proteus is given as “bacteria inhibitive effects on Shigella, E. Coli, Proteus,”. Moreover, in the data set with B-streptococcus, the “bacteria inhibitive effects on B-streptococcus” value was “bacteria inhibitive effects on Shigella, E. Coli, Proteus,”. For the same compound, the “bacteria inhibitive effects on Staphylococcus aureaus” value in the data set on Staphylococcus aureaus is recorded as “bacteria inhibitive effects on Shigella, E. Coli, Proteus,”.
santol: in the data set with Shigella species, the “effective to Shigella species” value is recorded as “effective”.
`C/C(=C/CC[C@]1(C)C2C[C@@H]3[C@H](C2)C31C)CO` [α - santol]: in the data set on bacteria, the anti-bacteria effects result was “The α - santol and β -santol show stronger anti-bacteria”.
